According to BindingDB's records for doi:10.1111/cbdd.12713 (Novartis Institutes of Biomedical Research Institute, 2016):
pIC50: −log10 of the molar value.

Biological target: T1, Aquaporin-1 (Homo sapiens, UniProt P29972)
T1 sequence (P29972 whole entry): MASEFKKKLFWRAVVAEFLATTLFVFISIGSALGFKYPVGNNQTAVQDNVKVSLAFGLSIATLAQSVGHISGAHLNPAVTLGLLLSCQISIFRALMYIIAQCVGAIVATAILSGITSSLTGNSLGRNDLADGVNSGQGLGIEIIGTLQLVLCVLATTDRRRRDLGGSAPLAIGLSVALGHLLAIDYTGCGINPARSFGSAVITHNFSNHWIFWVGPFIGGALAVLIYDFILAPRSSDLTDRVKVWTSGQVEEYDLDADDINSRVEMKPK
Assay: Stopped-flow Assay
Description: Osmotic water permeability was measured at 22-24 °C bymonitoring 90° scattered light intensity at 520 nm wavelength. Measurements were made using a PiStar 180 (Applied Photophysics, UK), with a dead time of 1-2 milliseconds. Thirty minutes prior to the assay, stripped red blood cell ghosts or proteoliposomes containing purified AQP1 and stored in ice were treated with mercuric chloride (50-100 µM; positive control for inhibition) or with the various compounds usually at a concentration of 150 µM. Stock solutions of compounds were in 100% ethanol (for stripped erythrocyte membrane experiments) and in 100% DMSO (for proteoliposome experiments). An inwardly directed osmotic gradient (hyperosmotic shock) was created by mixing the vesicles maintained in Buffer A (50 mM sodium phosphate buffer pH, 100 mM NaCl, 1 mM EDTA, 0.025% sodium azide) with an equal volume of 200 mM mannitol. On the other hand, vesicles preincubated with 200 mM mannitol were mixed with Buffer A to create an outwardly

Nc1nc(NC[C@H]2CC[C@H](CNS(=O)(=O)c3ccc4ccccc4c3)CC2)nc2ccccc12 was tested, and the pIC50 was 5.41.
For CNCC1Cc2cc(F)cc(-c3c(Cl)cccc3Cl)c2O1 (stereo unspecified) [{[7-(2,6-dichlorophenyl)-5-fluoro-2,3-dihydro-1-benzofuran-2-yl]methyl}(methyl)amine (Compound 6)], the pIC50 was 4.53.
Nc1nc(NC[C@H]2CC[C@H](CNS(=O)(=O)c3cccc4ccccc34)CC2)nc2ccccc12 [CGP 71683] gave a pIC50 of 5.57.
For Nc1nc(NC[C@H]2CC[C@H](CNS(=O)(=O)c3cccc4c(Cl)cccc34)CC2)nc2ccccc12 [5-chloro-N-{[(1r,4r)-4-{[(4-aminoquinazolin-2-yl)amino]methyl}cyclohexyl]methyl}naphthalene-1-sulfonamide (Compound 3)], the pIC50 was 5.24.
NCC1Cc2cc(F)cc(-c3ccc(Cl)cc3Cl)c2O1 (stereo unspecified) [[7-(2,4-dichlorophenyl)-5-fluoro-2,3-dihydro-1-benzofuran-2-yl]methanamine (Compound 5)] gave a pIC50 of 4.82.
CNCC1Cc2cc(F)cc(-c3ccc(Cl)cc3Cl)c2O1 (stereo unspecified) [{[7-(2,4-dichlorophenyl)-5-fluoro-2,3-dihydro-1-benzofuran-2-yl]methyl}(methyl)amine (Compound 4)] showed a pIC50 of 5.01.
